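These data come from cells grown in 96-well plates and exposed to compound for 48 hours at five concentrations. Here, GI50 denotes the concentration required for 50% inhibition of growth. TGI denotes the concentration required for complete inhibition of growth.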
Columns and labels:
Assay in all cases: NCI-60 cell line screen, 48 h
ACHN renal = system: ACHN renal
RPMI-8226 leukemia = system: RPMI-8226 leukemia
COLO 205 colon = system: COLO 205 colon
786-0 renal = system: 786-0 renal
MOLT-4 leukemia = system: MOLT-4 leukemia
SN12C renal = system: SN12C renal
OVCAR-5 ovarian = system: OVCAR-5 ovarian
NCI-H23 lung = system: NCI-H23 lung
HCT-116 colon = system: HCT-116 colon
SK-OV-3 ovarian = system: SK-OV-3 ovarian

SMILES | GI50 (ACHN renal) [µM] | TGI (ACHN renal) [µM] | GI50 (RPMI-8226 leukemia) [µM] | TGI (RPMI-8226 leukemia) [µM] | GI50 (COLO 205 colon) [µM] | TGI (COLO 205 colon) [µM] | GI50 (786-0 renal) [µM] | TGI (786-0 renal) [µM] | GI50 (MOLT-4 leukemia) [µM] | TGI (MOLT-4 leukemia) [µM] | GI50 (SN12C renal) [µM] | TGI (SN12C renal) [µM] | GI50 (OVCAR-5 ovarian) [µM] | TGI (OVCAR-5 ovarian) [µM] | GI50 (NCI-H23 lung) [µM] | TGI (NCI-H23 lung) [µM] | GI50 (HCT-116 colon) [µM] | TGI (HCT-116 colon) [µM] | GI50 (SK-OV-3 ovarian) [µM] | TGI (SK-OV-3 ovarian) [µM]
CC1(C)[C@@H](OC(N)=O)[C@H]2O[C@H]2[C@]2(C=O)[C@H]3CC[C@]4(C)[C@@H](c5ccc(=O)oc5)[C@@H](Cl)C[C@]4(O)C3=CC[C@@H]12 | 0.00403 | 0.00892 | 0.00795 | 0.034 | 0.00731 | 0.0199 | 0.00489 | 0.0105 | 0.00365 | 0.0112 | 0.0056 | 0.0173 | 0.00606 | 0.0151 | 0.00379 | 0.0111 | 0.00435 | 0.00853 | 0.007 | 0.0203
O=C1Nc2ccc(F)cc2/C1=C/c1ccc[nH]1 | 18.5 | > 25 | > 25 | > 25 | > 25 | > 25 | > 25 | > 25 | > 25 | > 25 | > 25 | > 25 | > 21.3 | > 25 | > 25 | > 25 | > 23.7 | > 25 | > 25 | > 25
C[C@]12CC[C@@H]3c4cc(OCC(F)(F)F)c(O)cc4/C(=N/O)C[C@H]3[C@@H]1CC[C@@H]2O | 0.065 | > 64 | 0.0584 | 2.33 | – | 35.3 | 0.029 | – | 0.0575 | – | – | 48.3 | – | > 58.2 | 0.0787 | 12.7 | 0.0421 | 15.2 | – | 0.439
CCn1c(SCc2ccc(C)cc2)nnc1-c1nn(-c2ccc(Cl)cc2Cl)c(-c2ccc(Cl)cc2)c1C | 2.74 | 10.4 | 0.464 | 3.05 | 1.51 | 3.39 | 2.69 | 12.2 | 2.15 | 11 | 2.31 | 10.8 | 3.54 | 15.2 | 2.24 | 12.5 | 0.573 | 10.6 | 2.58 | 8.18
CN(C)c1cc[c]([Sn]([c]2ccc(N(C)C)cc2)([c]2ccc(N(C)C)cc2)[c]2ccc(N(C)C)cc2)cc1 | 14.5 | 34.2 | 1.55 | 4.76 | 4.19 | 17.7 | 5.36 | 19.3 | 1.93 | 6.22 | > 100 | > 100 | 16.2 | 33.2 | 5.88 | 32.3 | 3.94 | 13.9 | 28 | 49.5
CCn1c(-c2ccc(OC(C)=O)cc2)c(C)c2cc(OC(C)=O)ccc21 | – | > 100 | – | 42.6 | – | 47.4 | – | 86.9 | – | 34 | – | 79 | – | 55 | – | 57.4 | – | 22.1 | – | 74.5
O=C(CCC1OCCO1)Nc1cc(NCc2ccccc2)ccc1OCc1ccccc1 | – | > 100 | – | > 100 | – | 52.1 | – | > 100 | – | 81.5 | – | > 100 | – | > 100 | – | > 100 | – | > 100 | – | > 100
COc1ccc(CCN2COc3c([C@@H](C)CCC=C(C)C)ccc(C)c3C2)cc1OC | 6.11 | 20.2 | 2.09 | 7.67 | 1.79 | 3.19 | 1.98 | 4.16 | 3.69 | > 100 | 3.27 | 13.5 | 8.53 | 20.8 | 2.55 | 6.08 | 2.17 | 4.94 | 11.8 | 31.1
CN(C)C(=O)[C@H](O)[C@H](Cc1ccccc1)NC(=O)c1cc2cc(Cl)ccc2[nH]1 | 22.2 | 60.8 | 19.5 | 66.6 | 16.1 | 30.3 | 27.3 | > 85.2 | 21 | 79.4 | 23.5 | > 95.1 | 19.1 | 49.9 | 25.8 | > 100 | 25 | > 87 | 29.1 | 97.8
